# Assay results reported in patent US9326972B2, “Use of phenylmethimazoles, methimazole derivatives, and tautomeric cyclic thiones for the treatment of autoimmune/inflammatory diseases associated with toll-like receptor overexpression” (Ohio University, priority 2004, dated 2016).
# Tests used:
# NF-κB = NF-κB Luc reporter gene in FRTL-5 thyrocytes; type: cell-based, rat; settings: for NF-κB Luc Relative Luciferase Activity % of Control (±15%), +C10: 6 hours
# Procedure: Poly (I:C) (the dsRNA ligand commonly used as a test compound) activates the TLR3 mediated NF-κ β/Map kinase signal pathway in FRTL-5 thyrocytes. FRTL-5 cells were transiently transfected with 100 ng of luciferase reporter pNF-κB Luc and 2 ng of internal control phRL-Tk. After 36 h, cells were incubated with 100 μg/ml poly (I:C) or endotoxin-free E. coli DNA for 6 h. Measurements were made with the Dual Luciferase Assay System (Promega). Poly (I:C) increased TLR3 mediated NF-κB mediated luciferase activity (gene expression) 6 fold; dsDNA had no effect. Further support came from electrophoretic mobility shift analyses (EMSA). When FRTL-5 thyrocytes were incubated with 100 μg/ml poly (I:C), IL-1β, TNF-α or TPA, cells lysed after 1 h, and nuclear translocation of NF-κB measured. The poly (I:C) induced p50/p65 complex formation as measured by the presence of a specific new protein/DNA complex and its inhibition by anti-p50 and p65 antibodies, but not by anti-p52, c-rel and Rel B antibodies; the complex was also supershifted by anti-p50. […] Additionally, when FRTL-5 cells were co-transfected with pCMV-BD-Elk 1 and pFR-luc, then incubated with 100 μg/ml poly (I:C) or IL-1β for 6 hrs, ELK1 transactivation was increased 2-fold by both Poly (I:C) and IL-1β when measured with the Dual Luciferase Assay System (Promega). NF-κB/MAP Kinase signals evoked by TLR3 binding dsRNA are only one portion of TLR3 functional expression.
# Cells were co-transfected with ISRE-Luc and pRLTk-Int and then treated without (none) or with Poly I:C (100 μg/ml), LPS (100 ng/ml), IL-1β (10 ng/ml) TNF-α (25 ng/ml), IFN-β (100 U/ml) or IFN-γ (1000 U/ml) in the presence of DMSO (−) or C10 for 6 hours. Data were obtained using the Dual Luciferase Assay system. The effect on the ISRE element is not duplicated by an NF-κB reporter plasmid despite the similarity of the two elements: ([…])5 (SEQ ID NO:3) vs. ([…])5 (SEQ ID NO:4), respectively. Data are representative of multiple experiments.
# Plasmids for Reporter Gene Assays. Human IRF-3 was amplified from human cDNA and cloned into pCR 2.1 by the TOPO/TA (Invitrogen, Carlsbad, Calif.) cloning method, and then sequenced. IRF-3 was then excised by EcoRI digestion and subcloned into pCMV-BD (Stratagene, La Jolla, Calif.) for use in transactivation assays. To construct IFN-β-luc the human IFN-β promoter sequence was amplified from human genomic DNA (Clontech, Palo Alto, Calif.)) using Ex Taq™ Polymerase (Takara, Madison, Wis.). The PCR fragment contained human IFN-β promoter sequence from −125 to +34 relative to the transcription start site (+1) and incorporated KpnI and XhoI restriction sites at the 5′ and 3′ ends, respectively. The primers were as follows: hIFN-β (−125) KpnI (5′-[…]-3′) (SEQ ID NO:9) and hIFN-β (+34) XhoI (5′-[…]-3′). (SEQ ID NO: 10) The fragment was digested with KpnI and XhoI then ligated into a similarly digested pGL3 Basic (Promega, Madison, Wis.) vector. The human MyD88 wild and dominant negative expression vectors were kindly donated by Dr. P. E. Auron. pFR-luc (5×Gal4 DNA binding domains and minimal TATA box), ISRE-Luc, NF-κB-luc and the Elk1 trans-Reporting System were purchased from Stratagene. pRL TK-Int was purchased from Promega.
# Transient Expression Analysis. A DEAE procedure was used to transfect promoter-luciferase gene constructs and expression plasmids into FRTL-5 cells. Briefly, FRTL-5 cells were grown in 24-well plates to about 70% confluence, washed with 0.5 ml of serum-free culture medium (6H0 medium), then exposed to 125 μl of premade plasmid-DEAE mixture per well for 15 min at room temperature. The plasmid-DEAE mixture was prepared by incubating 100 ng of plasmid DNA, unless otherwise noted in individual experiments, with 3.125 μl of DEAE-Dextran (10 mg/ml) (Promega, Madison Wis.). FRTL-5 cells were incubated with this mixture for 2 hr at 37° C. in a CO2 incubator, before 2 ml of 6H5 medium was added. […]
# NF-κB p65/p50 complex = assay: EMSA of NF-κB p65/p50 complex formation in FRTL-5 thyrocytes; type: cell-based, rat; settings: FRTL-5, EMSA, 6 hours
# TLR3 = TLR3 mRNA in NPA human thyrocytes (Northern); type: cell-based; settings: 0.5 mM C10
# Procedure: In order to confirm the presence and functionality of TLR3 in human thyrocytes, we evaluated TLR3 expression in cultured NPA human thyrocytes. NPA thyrocytes are from a papillary carcinoma but are known to retain functional properties of normal thyrocytes. Transfection with dsRNA [Poly (I:C)], but not transfection by dsDNA or incubation with Poly (I:C), was able to increase TLR3 mRNA levels in Northern blots. The dsRNA, but not the dsDNA transfection, could also increase IFN-β mRNA levels, measured as before with PCR. Additionally, as was the case for FRTL-5 cells and dsRNA transfection, IFN-β increased PKR mRNA levels as well as TLR3 RNA levels.
# NPA-87 cells are a continuous line of human thyrocytes derived from papillary carcinoma cells. They retain several functional responses including TSH-increased cAMP signaling (J. Xu, et al., J Clin Endocrinol Metab, 88:4990-6 (2003)). They were kindly provided by Dr. Guy Julliard (University of California, Los Angeles, Calif.) and grown in RPMI 1640 medium supplemented with 2 g/liter sodium bicarbonate, 0.14 mM nonessential amino acids, 1.4 mM sodium pyruvate, and 10% fetal bovine serum, pH 7.2.
# RNA Isolation and Northern Analysis.
# serum cytokines = assay: Serum pro-inflammatory cytokines in LPS-treated mice (ELISA); type: in vivo, mouse; settings: LPS-treated mice of Table 5
# Procedure: Quantification of pro-inflammatory cytokines in blood: The cytokines TNF-α, IL-1β, IL-6, IFN-γ and IL-12 were quantified in serum using ELISA techniques. Blood was collected from the inner canthus of the eye under anesthesia and serum saved at −20° C. until use. The ELISA kits were from R&D System and the results were expressed in pg/ml serum.
structure (smiles),measurement,setting,value
"Cn1c(-c2ccccc2)cnc1S [Compound C10, 5-Phenylmethimazole]","NF-κB Luc Relative Luciferase Activity % of Control (±15%), +C10","NF-κB; FRTL-5, Ligand IFN-β 100 U/ml",150 % of Control
same,"NF-κB Luc Relative Luciferase Activity % of Control (±15%), +C10","NF-κB; FRTL-5, Ligand IFN-γ 1000 U/ml",180 % of Control
same,"NF-κB Luc Relative Luciferase Activity % of Control (±15%), +C10","NF-κB; FRTL-5, Ligand IL-1β 10 ng/ml",350 % of Control
same,"NF-κB Luc Relative Luciferase Activity % of Control (±15%), +C10","NF-κB; FRTL-5, Ligand LPS 100 ng/ml",250 % of Control
same,"NF-κB Luc Relative Luciferase Activity % of Control (±15%), +C10","NF-κB; FRTL-5, Ligand None",100 % of Control
same,"NF-κB Luc Relative Luciferase Activity % of Control (±15%), +C10","NF-κB; FRTL-5, Ligand Poly (I:C) 100 μg/ml",300 % of Control
same,"NF-κB Luc Relative Luciferase Activity % of Control (±15%), +C10","NF-κB; FRTL-5, Ligand TNF-α 25 ng/ml",225 % of Control
same,effect on Poly (I:C)-increased NF-κB-luciferase activity,"NF-κB; FRTL-5, 0.5 mM C10 or 5 mM MMI",minimal effect
same,effect on Poly (I:C)- or LPS-increased p65/p50 complex formation,NF-κB p65/p50 complex,did not have any significant effect
same,dsRNA transfection- or IFN-β-increased TLR3 mRNA levels,TLR3,decreased
same,"serum cytokine levels (IL-1β, IL-6, TNF-α, IFN-γ, IL-12) by ELISA",serum cytokines,reduced these cytokine levels to levels in normal control mice
